In patent publication US20170143646A1, “EFFECT OF LIPOPHILIC NUTRIENTS ON DIABETIC EYE DISEASES” (OmniActive Health Technologies Limited, priority 2014, published 2017):

Columns and labels:
Assay type in all cases: in vivo, rat
[1] = test system: Nerve Growth Factor (NGF); experiment: NGF protein in retina by immunofluorescence; conditions: diabetic retina, curcumin 0.01% diet
Protocol: (§1) Histopathology: The eye balls from selected animals were collected in fixative 4% paraformaldehyde solution in separately labeled vials. The tissues were given some nicks so as to facilitate penetration of fixative into deep tissue. They were kept at room temperature for 24-48 hrs followed by replacing the fixative with 20 mM sodium phosphate buffer. Buffer was scheduled to be replaced with fresh buffer one each week until histopathological processing. Tissues were embedded in paraffin and sections were taken in microtome. Coated slides are used for immunohistochemistry and immunofluorescence, whereas uncoated slides for hemotoxylin and eosin (H & E) staining.

Rhodopsin (Rho) [2] = experiment: Rhodopsin protein in retina by immunofluorescence; conditions: diabetic retina, curcumin 0.01% diet
Protocol: as §1

[3] = test system: STZ-induced diabetic rats; experiment: Retina histology (H & E), thickness of retinal layers; conditions: curcumin 0.01% diet, Table 6
Protocol: as §1
A representative table of retinal layers thickness (in μm) measured by the use of Lieca application suit, Leica, Switzerland. C, Non diabetic control; D, Diabetic control; D+RL, Diabetes+Regular Lutein; D+SL, Diabetes+Soluble Lutein; GCL, ganglion cell layer; IPL, inner plexiform layer; INL, inner nuclear layer; OPL, outer plexiform layer; ONL, outer nuclear layer; PRL, photo receptor layer.

Rhodopsin (Rho) [4] = experiment: Rhodopsin mRNA in retina by real-time PCR; conditions: diabetic retina, curcumin 0.01% diet
Protocol: (§2) Quantitative real-time PCR: Total RNA was extracted from the retina of rats using Tri reagent. Isolated RNA was further purified by RNeasy Mini Kit (Qiagen) and quantified by measuring the absorbance at 260 and 280 nm on ND1000 spectrophotometer (NanoDrop technologies, Delaware, USA). The quality of RNA preparation was assessed by electrophoresis on a denaturing agarose gel. Two μg of total RNA was reverse transcribed using High Capacity cDNA Reverse Transcription kit. Reverse transcription reaction was carried out with a thermocycler (ABI 9700). Real-time polymerase chain reaction (PCR) (ABI-7500) was performed in triplicates with 25 ng cDNA templates using SYBR green master mix with gene specific primers. Normalization and validation of data were carried using (3-actin as an internal control and data were compared between samples according to comparative threshold cycle (2^-ΔΔct) method.

[5] = test system: STZ-induced diabetic rats; experiment: Size exclusion HPLC of lens soluble protein; conditions: vs Group-D
Protocol: (§3) Sodium dodecyl sulfate polyacrylamide gel electrophoresis (SDS-PAGE) and size exclusion chromatography of lens proteins: Subunit profile and cross-linking of soluble proteins were analyzed on 10% polyacrylamide in the presence of sodium dodecyl sulfate (SDS) under reducing conditions. Crystalline distribution in the soluble protein fraction was performed by size exclusion chromatography on a 600×7.5 mm TSK-G4000 SW column (TOSOH Co., Japan) using a HPLC system. The column was equilibrated with 0.1 M sodium phosphate buffer pH 6.7 containing 0.1 M sodium chloride at a flow rate of 1 ml/min.

[6] = test system: STZ-induced diabetic rats; experiment: Slit lamp examination and cataract grading (diabetic cataract); conditions: end of ten weeks; lutein 0.5% or curcumin 0.01% in diet; Group-D stage 4
Protocol: Male Wistar strain (WNIN) rats (2 months old; Average BW of 213±14 g) obtained from the National Center for Laboratory Animal Sciences, National Institute of Nutrition, Hyderabad, India (NCLAS, NIN). Animals were maintained at NCLAS, NIN and kept for acclimatization in an experimental room for two weeks. Diabetes was induced in overnight fasted animals by a single intraperitoneal injection of STZ (30 mg/kg) in 0.1 M citrate buffer, pH 4.5. Another set of rats, which received only a vehicle, served as the control (Group I; n=12). Fasting blood glucose levels were measured 72 h after STZ injection. Animals having blood glucose levels >150 mg/dL were considered diabetic and those were only divided into five groups (Group II-VI). A group of control rats (n=6) were fed with 0.01% soluble curcumin (Group VII) and soluble 0.5% lutein alone (Group VIII).
Slit lamp examination and Cataract grading: Eyes were examined every week using a slit lamp bio microscope on dilated pupils. Initiation and progression of lens opacity was graded into five categories (0-4).
Cataract development and progression: Onset and progression of cataract is monitored by slit lamp biomicroscope examination as described below: Eyes were examined every week using a slit lamp biomicroscope (Kowa SL15, Portable, Japan) on dilated pupils.

[7] = test system: STZ-induced diabetic rats; experiment: SDS-PAGE protein profiling of lens soluble fraction; conditions: vs group-D
Protocol: as §3
SDS-PAGE protein profiling: Differences in protein distribution pattern were observed by running the lens protein samples on 12% polyacrylamide gel. 30 μg of protein was loaded per well along with molecular weight marker for SDS-PAGE (Broad range SDS-PAGE marker, BioRad). […] FIG. 3 represents the SDS-PAGE pattern of soluble fraction of lens proteins, as shown in the drawings accompanied with the specification.

[8] = test system: STZ-induced diabetic rats; experiment: Total and soluble protein in lens homogenate (Lowry)
Protocol: Blood/Lens collection and processing: Blood was drawn once in every week from retro orbital plexus for glucose and insulin estimation. At the end of 12 weeks, animals were sacrificed by CO2 asphyxiation and lenses were dissected by posterior approach and stored at −70° C. until further analysis. A 10% homogenate was prepared from 3-5 pooled lenses in 50 mM phosphate buffer, pH 7.4. All the biochemical parameters were analyzed in the soluble fraction of the lens homogenate (15,000x g at 4° C.) except for lens malondialdehyde (MDA), which was determined in the total homogenate.
Biochemical estimations: Lens MDA, as thiobarbituric acid reacting substances (TBARS) protein carbonyl content were determined according to the methods for estimating the protein carbonyl content described by Suryanarayana P et al. in the research paper “Curcumin and turmeric delay streptozotocin-induced diabetic cataract in rats,” Invest Ophthalmol Vis Sci 2005; 46(6):2092-9. Total, soluble and insoluble protein was assayed by Lowry method using bovine serum albumin (BSA) as standard.
Individual lenses were weighed and pooled into 4 lenses for a pool, and such 4-5 pools were formed per group. A 10% homogenate was prepared in 50 mM sodium phosphate buffer pH 7.4, with tissue homogenizer at intermittent time gaps to avoid excess heat generation. Separate aliquots of total homogenate (TH) were made 250 μl for TBARS assay, 150 μl for sorbitol estimation, and 20 μl for protein estimation. Remaining homogenate was centrifuged at 10,000 RPM for 30 min at 4° C. Supernatant was separated into labelled vials, as total soluble protein (TSP).
Determining soluble percentage of protein in lens homogenate: Protein estimation was done in lens homogenate and soluble fraction by Lowry's method. Amount of protein present per gram weight of lens was calculated. Percentage of soluble protein was calculated by multiplying the fraction of soluble protein by 100.

[9] = test system: STZ-induced diabetic rats; experiment: Electroretinogram, oscillatory potentials (OPs); conditions: curcumin 0.01% diet; D 334.2
Protocol: Experimental design: Male Wistar-NIN rats with an average body weight of 120 gms are obtained from the National center for laboratory animal sciences, National institute of Nutrition, Hyderabad (NCLAS, NIN). Animals were maintained at NCLAS, MN and kept for acclimatization in an experimental room for two weeks. Diabetes was induced in overnight fasted animals by a single intraperitoneal injection of STZ (30 mg/kg) in 0.1 M citrate buffer, pH 4.5. Another set of rats, which received only a vehicle, served as the control (Group-C; n=6). Fasting blood glucose levels were measured 72 h after STZ injection. Animals having blood glucose levels >150 mg/dL were considered diabetic and all the animals are divided into four groups as shown in the Table 3 below.
All the animals were housed in individual cages maintained on their respective diets for 12. weeks and drinking water was provided ad libitum throughout the study period. Daily food intake and weekly body weights, fasting glucose levels were noted. […]
Electroretinogram (ERG) Analysis: Diabetic retinoapthy is characterized by disturbances in retinal function. The retinal function can be assessed by electroretinogram. […]
Animals were dark-adapted for overnight and prepared for the ERG procedure under dim red illumination. […] The oscillatory potentials were extracted from the wave form and the sum of all OPs was calculated.

[10] = test system: Platelet-derived growth factor (PDGF); experiment: PDGF expression in retina by immunohistochemistry; conditions: diabetic retina, curcumin 0.01% diet
Protocol: as §1

[11] = test system: Nerve Growth Factor (NGF); experiment: NGF gene expression in retina by real-time PCR; conditions: diabetic retina, curcumin 0.01% diet
Protocol: as §2

COc1cc(/C=C/C(=O)CC(=O)/C=C/c2ccc(O)c(OC)c2)ccc1O [RC, curcumin]
NGF protein [1]: prevented loss of NGF protein | Rho protein expression (Rhodopsin (Rho) [2]): prevented loss of Rho protein expression | GCL + IPL thickness [3]: 35.692 μ | INL thickness [3]: 13.648 μ | ONL thickness [3]: 30.108 μ | OPL thickness [3]: 5.685 μ | PRL thickness [3]: 19.520 μ | Total retinal thickness [3]: 106.014 μ | mRNA levels of Rho gene (Rhodopsin (Rho) [4]): prevented its decline | size exclusion profile of total soluble protein (TSP) [5]: normalized the profile of TSP | severity of cataracts (stage 0-4) [6]: 3.0 stage | band of aggregated proteins at ~50 kDa [7]: reduced band intensity | loss of soluble protein compared to group-D ([8]; lens): significantly prevented loss of soluble protein | Total protein ([8]; lens homogenate, mean ± SEM, n = 6, lutein 0.5% or curcumin 0.01% diet, 12 weeks): 368.50 ± 19.2 mg/gm lens | Soluble protein ([8]; lens soluble fraction, mean ± SEM, n = 6): 202.63 ± 21.6 mg/gm lens | sum of OPs (amplitude) [9]: 445.7 μV | PDGF expression [10]: inhibited diabetes induced PDGF over expression | NGF gene expression [11]: equal beneficiary effect in preventing down regulation of NGF gene
